# Assay results from US20110015226A1, “Treatment of Energy Utilization Disease” (SUMMIT CORPORATION PLC, priority 2008, published 2011).
# Like-named read-outs stand apart in the source and are kept apart here.
# Columns and labels:
# β-D-glucosidase (Almond) = experiment: Glycosidase inhibition: β-D-glucosidase (Almond); type: biochemical; conditions: compounds tested at 0.8 mM
# Source text: (§1) The results tabulated below were obtained using commercially available glycosidases and p-nitrophenyl-substrates using standard methods described for example by Watson et al (1997) Phytochemistry 46 255-259. All enzymes and substrates were bought from Sigma. Enzyme and substrate solutions were made using sodium phosphate buffers at the pH optima values. The enzymes used were α-D-glucosidase Saccharomyces cerevisiae, Bacillus stearothermophilus, Oryzae sativa), β-D-glucosidase (Almond), α-D-mannosidase (Jack bean), α-D-galactosidase (Green coffee beans), β-D-galactosidase (Bovine liver), α-L-fucosidase (Bovine kidney), N-acetyl-β-D-glucosaminidase (Bovine kidney, Jack bean, Aspergillus oryzae), Naringinase (Penicillium decumbens) and amyloglucosidase (Aspergillus niger). All enzymes were used with the appropriate p-nitrophenyl substrates (5 mM). Amyloglucosidase activity was measured using amylopectin (0.1%) (Merck) mixed with sodium phosphate buffer, pH 4.5 in a glass bottle, and healed in a boiling water bath for 20 minutes to dissolve with released glucose measured using ‘Trinder’ glucose detection solution (Sigma).
# (§2) All enzymes and para-nitrophenyl substrates were purchased from Sigma, with the exception of beta-mannosidase which came from Megazyme. Enzymes were assayed at 27° C. in 0.1M citric acid/0.2M disodium hydrogen phosphate buffers at the optimum pH for the enzyme. The incubation mixture consisted of 10 μl enzyme solution, 10 μl of 1 mg/ml aqueous solution of extract and 50 μl of the appropriate 5 mM para-nitrophenyl substrate made up in buffer at the optimum pH for the enzyme. The reactions were stopped by addition of 70 μl 0.4M glycine (pH 10.4) during the exponential phase of the reaction, which had been determined at the beginning using uninhibited assays in which water replaced inhibitor. Final absorbances were read at 405 nm using a Versamax microplate reader (Molecular Devices). Assays were carried out in triplicate, and the values given are means of the three replicates per assay. […]
# [1] = test system: β-D-mannosidase Cellullomonas fimi; experiment: Glycosidase inhibition: β-D-mannosidase Cellullomonas fimi; type: biochemical; conditions: compounds tested at 0.8 mM
# Procedure: All enzymes and para-nitrophenyl substrates were purchased from Sigma, with the exception of beta-mannosidase which came from Megazyme. Enzymes were assayed at 27° C. in 0.1M citric acid/0.2M disodium hydrogen phosphate buffers at the optimum pH for the enzyme. The incubation mixture consisted of 10 μl enzyme solution, 10 μl of 1 mg/ml aqueous solution of extract and 50 μl of the appropriate 5 mM para-nitrophenyl substrate made up in buffer at the optimum pH for the enzyme. The reactions were stopped by addition of 70 μl 0.4M glycine (pH 10.4) during the exponential phase of the reaction, which had been determined at the beginning using uninhibited assays in which water replaced inhibitor. Final absorbances were read at 405 nm using a Versamax microplate reader (Molecular Devices). Assays were carried out in triplicate, and the values given are means of the three replicates per assay. (See Watson, A. A., Nash, R. J., Wormald, M. R., Harvey, D. J., Dealler, S., Lees, E., Asano, N., Kizu, H., Kato, A., Griffiths, R. C., Cairns, A. J. and Fleet, G. W. J. (1997). Glycosidase-inhibiting pyrrolidine alkaloids from Hyacinthoides non-scripta. Phytochemistry 46 (2): 255-259.)
# [2] = test system: N-acetyl-β-D-glucosaminidase (Bovine kidney); experiment: Glycosidase inhibition: N-acetyl-β-D-glucosaminidase (Bovine kidney); type: biochemical; conditions: for % inhibition, N-acetyl-β-D-glucosaminidase (Bovine kidney): compounds tested at 0.8 mM;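 on all read-outs here: enzyme activity followed by cleavage of the matching p-nitrophenyl glycoside (5 mM) in phosphate buffer set to the enzyme's optimal pH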
# [3] = test system: N-acetyl-β-D-glucosaminidase (Jack bean); experiment: Glycosidase inhibition: N-acetyl-β-D-glucosaminidase (Jack bean); type: biochemical; conditions: compounds tested at 0.8 mM
# Source text: as §1, §2
# rat intestinal maltase = experiment: Rat intestinal glycosidases: maltase; type: biochemical; conditions: rat intestinal brush border membranes
# Procedure: (§3) Enzyme activities were prepared from brush border membranes of rat small intestine using disaccharides as substrates as described by Yasuda et al., 2002.
# rat intestinal lactase = target: T1, rat intestinal lactase (Rattus norvegicus, UniProt Q02401); experiment: Rat intestinal glycosidases: lactase; type: biochemical; conditions: rat intestinal brush border membranes
# T1 construct: Enzyme activities were prepared from brush border membranes of rat small intestine; from tissue; host or cells: rat small intestine brush border membranes
# Procedure: as §3
# rat intestinal trehalase = rat intestinal trehalase (Rattus norvegicus, UniProt G3V7Q9); experiment: Rat intestinal glycosidases: trehalase; type: biochemical; conditions: rat intestinal brush border membranes
# Procedure: as §3
# α-glucosidases = experiment: Inhibition of α-glucosidases (summary statement); type: biochemical; conditions: only just reaching 50% inhibition at nearly mM concentration
# Source text: as §1
# ob/ob mice = experiment: Oral glucose tolerance test after 7 days dosing in ob/ob mice; type: in vivo
# Procedure: The study started with 42 male ob/ob mice, 10 weeks of age. The mice were fed a normal chow diet during the whole study. After 1 week of acclimatization, mice were matched on basis of body weight, plasma glucose and insulin (after 4 h-fasting) and divided in 3 groups of 10 animals (t=0 days). For the next 6 days, mice received vehicle (control group 1) or 5 mg/kg/day (group 2) or 50 mg/kg/day (group 3) of the compound of formula (G2) (test compound) around 12.00 h by gavage (5 ml/kg mouse). On the 7th day, mice were fasted at 8.00 h and received the last gavage (vehicle for group 1 or 5 mg/kg/day, test compound for group 2 or 50 mg/kg/day test compound for group 3) at 12.00 h. At 13.00 h the mice subsequently received a glucose bolus (2 g/kg mouse, 5 ml/kg mouse) by gavage as start of the oral glucose tolerance test (OGTT). Measurement of blood glucose and plasma collection was at t=0 (just before gavage of glucose) and at t=5, 15, 30, 45, 60 and 120 min after glucose bolus. After the OGTT, mice were sacrificed with CO2 and additional blood was collected in heparin-coated tubes via heart puncture (>100 μl plasma was obtained) and heparin-plasma samples were analysed.
# On day 0 mice were randomized on body weight and 4 h fasted plasma glucose and insulin levels (table 3.1.a). Twelve out of 42 mice were excluded, to create more homogenous groups with respect to body weight, plasma glucose and insulin.
# zebrafish larvae = experiment: Acute Toxicity assay in zebrafish larvae; type: in vivo; conditions: 1 mM, 5 mM, 25 mM, 50 mM, 100 mM, 200 mM, 500 mM aqueous dose, 72-96 hpf
# Procedure: The compound of formula (G2) was screened for toxicity liabilities using a validated Acute Toxicity assay. Fertilized eggs were obtained from breeding pairs of adult Tuebingen (Tu) zebrafish and arrayed at the 2-4 cell stage of development into 24-well culture plates containing fresh 0.3× Danieau's solution. Plates were incubated at 28.5° C. in a humidity controlled environment prior to assessment. Stock concentrations of Compound were produced by serial dilution in 100% DMSO (final concentration exposed to larvae, 0.5%). Screening was performed at seven doses (1, 5, 25, 50, 100, 200 and 500 mM) alongside VASTox internal controls and vehicle. Dosing of Compound took place at 72 h post fertilisation (hpf; at which point embryogenesis is complete) with visual assessment of lethality and gross morphology at 96 hpf (24 h incubation). […] were exposed to each dose of Compound giving a total of […] assessed (excluding controls). At 96 hpf, larvae were observed and screened using a dissecting stereomicroscope for the presence or absence of: (1) heartbeat (2) circulation; (3) necrosis; and (4) motility (touch response). If all four criteria were satisfied, a larva would be classified as dead. The compound was screened blind.
# glucuronidase = glucuronidase (Homo sapiens, UniProt P08236); conditions: Booth et al. (2007) and references therein; cited from earlier work
# iduronidase = iduronidase (Homo sapiens, UniProt P35475); conditions: Booth et al. (2007) and references therein; cited from earlier work
# digestive glucosidases = conditions: Watson et al., 2001; cited from earlier work
# [4] = 5 mg/kg/day or 50 mg/kg/day by gavage, compared to control (vehicle) group
# Sequence of rat intestinal trehalase (G3V7Q9 21-553): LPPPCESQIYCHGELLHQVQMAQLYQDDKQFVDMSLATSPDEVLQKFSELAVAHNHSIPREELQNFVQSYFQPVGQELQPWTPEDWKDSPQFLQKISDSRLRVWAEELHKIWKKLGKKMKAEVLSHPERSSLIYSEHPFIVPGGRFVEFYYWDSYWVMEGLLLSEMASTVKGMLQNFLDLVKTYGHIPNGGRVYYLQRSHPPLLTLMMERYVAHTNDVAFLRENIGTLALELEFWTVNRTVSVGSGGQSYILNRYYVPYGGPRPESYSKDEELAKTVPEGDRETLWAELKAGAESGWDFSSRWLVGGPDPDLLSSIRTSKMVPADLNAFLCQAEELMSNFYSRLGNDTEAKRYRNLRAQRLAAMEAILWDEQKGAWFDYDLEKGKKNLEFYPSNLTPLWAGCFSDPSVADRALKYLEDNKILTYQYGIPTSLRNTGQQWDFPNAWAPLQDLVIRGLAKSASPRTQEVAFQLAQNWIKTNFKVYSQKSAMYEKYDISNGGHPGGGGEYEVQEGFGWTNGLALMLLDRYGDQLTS
# T1 sequence (Q02401 868-1928): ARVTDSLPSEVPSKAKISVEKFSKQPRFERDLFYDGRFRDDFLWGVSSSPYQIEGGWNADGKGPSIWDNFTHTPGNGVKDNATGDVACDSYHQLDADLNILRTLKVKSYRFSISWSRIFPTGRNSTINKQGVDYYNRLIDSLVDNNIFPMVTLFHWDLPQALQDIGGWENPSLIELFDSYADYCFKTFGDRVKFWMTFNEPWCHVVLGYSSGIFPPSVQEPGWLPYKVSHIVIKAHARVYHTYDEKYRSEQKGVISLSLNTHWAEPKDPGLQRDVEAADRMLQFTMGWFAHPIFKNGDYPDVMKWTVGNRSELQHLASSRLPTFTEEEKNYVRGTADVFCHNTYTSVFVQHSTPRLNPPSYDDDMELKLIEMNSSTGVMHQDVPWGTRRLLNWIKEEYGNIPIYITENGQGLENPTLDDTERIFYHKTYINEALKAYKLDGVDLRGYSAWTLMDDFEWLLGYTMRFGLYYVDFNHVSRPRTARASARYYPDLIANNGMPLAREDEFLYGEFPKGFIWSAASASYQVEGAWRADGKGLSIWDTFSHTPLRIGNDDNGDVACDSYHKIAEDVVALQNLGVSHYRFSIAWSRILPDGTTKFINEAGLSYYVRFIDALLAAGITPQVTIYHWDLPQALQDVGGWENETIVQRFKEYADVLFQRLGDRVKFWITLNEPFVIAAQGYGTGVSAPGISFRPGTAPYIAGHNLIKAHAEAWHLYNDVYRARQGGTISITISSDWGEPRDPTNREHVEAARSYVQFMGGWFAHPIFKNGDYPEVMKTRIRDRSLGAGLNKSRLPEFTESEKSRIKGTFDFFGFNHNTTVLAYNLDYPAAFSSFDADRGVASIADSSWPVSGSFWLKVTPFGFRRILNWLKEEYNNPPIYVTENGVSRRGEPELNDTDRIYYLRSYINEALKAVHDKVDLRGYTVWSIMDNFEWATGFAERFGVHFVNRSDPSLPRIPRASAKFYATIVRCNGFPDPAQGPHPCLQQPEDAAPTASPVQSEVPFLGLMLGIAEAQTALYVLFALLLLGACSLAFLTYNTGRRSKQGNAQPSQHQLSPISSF
# Sequence of iduronidase (P35475 28-653): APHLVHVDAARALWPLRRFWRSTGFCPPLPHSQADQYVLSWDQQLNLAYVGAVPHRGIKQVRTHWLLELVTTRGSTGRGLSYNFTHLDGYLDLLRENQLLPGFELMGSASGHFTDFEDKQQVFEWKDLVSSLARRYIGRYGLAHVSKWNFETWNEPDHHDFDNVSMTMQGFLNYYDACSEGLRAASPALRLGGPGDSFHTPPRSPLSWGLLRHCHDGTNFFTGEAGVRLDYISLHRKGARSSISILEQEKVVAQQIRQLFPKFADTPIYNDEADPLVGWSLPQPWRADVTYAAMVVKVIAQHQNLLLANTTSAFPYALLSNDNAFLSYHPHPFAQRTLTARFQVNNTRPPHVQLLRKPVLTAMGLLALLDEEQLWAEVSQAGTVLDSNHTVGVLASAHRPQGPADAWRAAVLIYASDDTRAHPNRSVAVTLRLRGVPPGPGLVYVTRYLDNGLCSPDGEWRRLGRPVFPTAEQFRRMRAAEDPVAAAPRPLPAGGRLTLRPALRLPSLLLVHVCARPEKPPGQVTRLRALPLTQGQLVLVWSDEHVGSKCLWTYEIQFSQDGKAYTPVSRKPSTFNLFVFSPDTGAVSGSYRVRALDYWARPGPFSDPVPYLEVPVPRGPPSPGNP
# Sequence of glucuronidase (P08236 23-651): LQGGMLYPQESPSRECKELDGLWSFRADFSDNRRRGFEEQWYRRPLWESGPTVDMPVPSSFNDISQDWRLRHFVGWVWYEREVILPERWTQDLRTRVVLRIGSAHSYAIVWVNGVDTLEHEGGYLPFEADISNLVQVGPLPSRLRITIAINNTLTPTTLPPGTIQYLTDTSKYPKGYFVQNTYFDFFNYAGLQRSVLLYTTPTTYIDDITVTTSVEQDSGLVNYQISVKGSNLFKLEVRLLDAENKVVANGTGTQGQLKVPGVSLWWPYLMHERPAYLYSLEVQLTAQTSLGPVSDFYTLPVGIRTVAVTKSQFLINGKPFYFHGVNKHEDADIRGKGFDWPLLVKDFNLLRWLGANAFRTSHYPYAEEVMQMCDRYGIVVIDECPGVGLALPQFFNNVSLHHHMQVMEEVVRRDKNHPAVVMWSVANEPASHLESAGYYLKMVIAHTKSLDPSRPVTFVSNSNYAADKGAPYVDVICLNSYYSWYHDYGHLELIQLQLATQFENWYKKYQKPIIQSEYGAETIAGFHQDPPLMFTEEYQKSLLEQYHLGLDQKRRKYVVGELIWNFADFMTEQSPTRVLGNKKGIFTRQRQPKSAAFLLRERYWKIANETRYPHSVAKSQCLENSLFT
structure (smiles),measurement,setting,value
"O=C(O)[C@H]1NC[C@H](O)[C@@H](O)[C@@H]1O [Compound G2, 2S,3R,4R,5S-trihydroxypiperidine-2-carboxylic acid]","% inhibition, β-D-glucosidase (Almond)",β-D-glucosidase (Almond),NI (NI = no inhibition)
same,"% inhibition, β-D-mannosidase Cellullomonas fimi",[1],NI (NI = no inhibition)
same,"% inhibition, N-acetyl-β-D-glucosaminidase (Bovine kidney)",[2],NI (NI = no inhibition)
same,"% inhibition, N-acetyl-β-D-glucosaminidase (Jack bean)",[3],10%
same,IC50,rat intestinal maltase,> 1000 µM
same,IC50,rat intestinal lactase,> 1000 µM
same,IC50,rat intestinal trehalase,> 1000 µM
same,inhibition of α-glucosidases,α-glucosidases,very weak inhibitor
same,plasma insulin concentrations 120 min after glucose bolus,ob/ob mice; 5 mg/kg and 50 mg/kg groups vs control,significantly increased
same,body weight,ob/ob mice; [4],not significantly changed
same,food intake,ob/ob mice; [4],not significantly changed
same,"plasma insulin at 15, 30, 45 and 60 min","ob/ob mice; after glucose bolus 2 g/kg, 5 and 50 mg/kg/day groups vs control",No significant changes
same,plasma insulin levels at 0 min,"ob/ob mice; just before oral glucose load, 5 and 50 mg/kg/day groups vs control, reduction not significant",reduced somewhat
same,acute toxicity to zebrafish larvae,zebrafish larvae,did not cause acute toxicity
same,inhibition of glucuronidase,glucuronidase,weak inhibitor
same,inhibition of iduronidase,iduronidase,weak inhibitor
"O=C(O)CN1[C@H](CO)[C@@H](O)[C@H](O)[C@H]1CO [Compound S2, 2-((2R,3R,4R,5R)-3,4-Dihydroxy-2,5-bis(hydroxymethyl)pyrrolidin-1-yl)acetic acid]","% inhibition, β-D-glucosidase (Almond)",β-D-glucosidase (Almond),55%
O=C(O)CCN1C[C@H](O)[C@@H](O)[C@H](O)[C@H]1CO [Compound T1],"% inhibition, N-acetyl-β-D-glucosaminidase (Bovine kidney)",[2],86.1%
same,IC50,"[2]; read-out: IC50, N-acetyl-β-D-glucosaminidase (Bovine kidney)",32.2 µM
same,IC50,[2]; read-out: IC50 against mammalian 6-N-acetylglucosaminidase (hexosaminidase),32 µM
"OC[C@H]1NC[C@H](O)[C@@H](O)[C@@H]1O [DNJ, 1-deoxynojirimycin, reference compound]","% inhibition, N-acetyl-β-D-glucosaminidase (Jack bean)",[3],NI (NI = no inhibition)
same,"Ki values, digestive glucosidases",digestive glucosidases,low or sub-μM range
